The values below come from publication PMC6792352, “Limited Chemical Structural Diversity Found to Modulate Thyroid Hormone Receptor in the Tox21 Chemical Library” (Environmental Health Perspectives, 2019).

The structures appear in SMILES notation. Structures can show the parent of a compound that is named as a salt.

The nature of the data set: in vitro. As to conditions: rat, gh3-tre-luc cells.

In turn, `Cc1cc(C(C)(C)c2cc(C)c(O)c(C)c2)cc(C)c1O` [4,4'-Propane-2,2-diylbis(2,6-dimethylphenol)] gave a 50% cytotoxic concentration (CC50) at 24 h (AC50 (uM) modified / 1000) of 16.9 µM. Same read-out and setting: with `CCN1C(=O)c2ccccc2C1Nc1ccc(OCCN2CCCCC2)cc1` (stereo not shown) [Etomidoline] the figure was greater than 50 µM; with `CC(c1cc2ccccc2s1)N(O)C(N)=O` (stereo not shown) [Zileuton], greater than 90 µM. `O=C(O)c1ccccc1C(=O)Nc1cccc2ccccc12` [Naptalam]: under “AC50 (uM) modified / 1000, Tox21_110001=Tox21_302279, viability, 1 nM T3 present, 24 h”, the CC50 at 24 h is greater than 90 µM. `CCCCCCCCCCCCCCCCC(C(=O)O)C(O)(CC(=O)O)C(=O)O` (stereo not shown) [Agaric acid] displayed a 50% cytotoxic concentration (CC50) at 24 h (AC50 (uM) modified / 1000) of 29.5 µM. In other words, the double-digit micromolar range. The same measure, in the same setting: under `CCN(CC)C(=O)c1cccnc1` [N,N-Diethylnicotinamide] stands greater than 50 µM; under `CC(CCc1ccc(O)cc1)NCCc1ccc(O)c(O)c1` (stereo not shown) [Dobutamine], greater than 50 µM.

The compound `Clc1nnc(Cl)c2ccccc12` [1,4-Dichlorophthalazine] displayed a CC50 at 24 h (AC50 (uM) modified / 1000) greater than 90 µM. Consider `Clc1ccc(C2(Cn3cncn3)CC(Br)CO2)c(Cl)c1` (stereo not shown) [Bromuconazole], for which the CC50 at 24 h (AC50 (uM) modified / 1000) was greater than 90 µM. In the case of `NC(=O)CCCCC(N)=O` [Adipamide], under “AC50 (uM) modified / 1000”, the CC50 at 24 h is greater than 90 µM.

As for `C[C@](N)(Cc1ccc(O)cc1)C(=O)O` [Metyrosine], the CC50 at 24 h (AC50 (uM) modified / 1000) is greater than 50 µM. Still for that read-out and setting: with `O=C(CO)[C@@H](O)[C@H](O)[C@@H](O)CO` [L-(-)-Sorbose] the figure was greater than 50 µM; with `CC12CCC(C1)C(C)(C)C2=O` (stereo not drawn) [alpha-Fenchone], greater than 50 µM; with `OP(O)c1ccccc1` [Phenylphosphinic acid], greater than 90 µM. Under “AC50 (uM) modified / 1000, Tox21_110001=Tox21_200981, viability, 1 nM T3 present, 24 h”, `Clc1ccc2ccccc2c1` [2-Chloronaphthalene] had a CC50 at 24 h greater than 90 µM.

As to `NC[C@H](O)c1ccc(O)c(O)c1` [Norepinephrine], the CC50 at 24 h (AC50 (uM) modified / 1000) is 57.7 µM. Same read-out and setting: with `O=C(O)C1CCC(C(=O)O)CC1` (stereo not shown) [1,4-Cyclohexanedicarboxylic acid] the figure was greater than 90 µM; with `CN1CCC(=C2c3ccccc3Sc3ccccc32)CC1` [Pimethixene maleate], 4.52 µM; with `COC(=O)c1ccccc1Cl` [Methyl 2-chlorobenzoate], greater than 90 µM. Regarding `CCC(=O)OCC(=O)[C@@]1(OC(=O)CC)[C@H](C)C[C@H]2[C@H]3[C@H]([C@@H](O)C[C@@]21C)[C@@]1(C)C=CC(=O)C=C1C[C@H]3Cl` [Alclometasone dipropionate], the CC50 at 24 h (AC50 (uM) modified / 1000) is greater than 20 µM. Same read-out and setting: with `Cc1nccn1-c1ccc(Sc2cccc(C3(C(N)=O)CCOCC3)c2)cc1` [CJ-013610] the figure was 42.6 µM; with `CN1CCCC1=O` [N-Methyl-2-pyrrolidone], greater than 90 µM. Still for that read-out and setting: with `COc1cc(C)cc(O)c1` [3-Methoxy-5-methylphenol] the figure was greater than 90 µM. The same measure, in the same setting: with `FC(F)(F)C(F)(F)C(F)(F)C(F)(F)C(F)(F)C(F)(F)F` [Perflexane] the figure was greater than 50 µM; with `CCCCCCCCCCCCCCCCC` [Heptadecane], greater than 90 µM. On to `O=C1NCN(c2ccccc2)C12CCN(CCCC(c1ccc(F)cc1)c1ccc(F)cc1)CC2` [Fluspirilene], for which, for the setting “AC50 (uM) modified / 1000”, it took 4.02 µM to reach half-maximal cytotoxicity (CC50 at 24 h). As for `CCCC(C)C(=O)O` (stereo not shown) [2-Methylpentanoic acid], the CC50 at 24 h (AC50 (uM) modified / 1000) was greater than 90 µM.

Turning to `Cc1cc(Cl)ccc1O` [4-Chloro-2-methylphenol], the CC50 at 24 h (AC50 (uM) modified / 1000) is greater than 90 µM. On the same count and under the same terms, with `Cc1ccc(N)c(S(=O)(=O)O)c1` [2-Amino-5-methylbenzenesulfonic acid] the figure was greater than 90 µM; with `CC(C)=CCCC(C)CC=O` (stereo not shown) [Citronellal], greater than 90 µM; with `N=C1N=C(N)c2cc3ccccc3cc21` [1,3-Diiminobenz(f)isoindoline], 39.2 µM.

Take `CC(C)N=C=NC(C)C` [Diisopropylcarbodiimide]: for the setting “AC50 (uM) modified / 1000”, the CC50 at 24 h was greater than 90 µM. As for `CCOC(=O)C(C)O` (stereo not shown) [Ethyl lactate], the CC50 at 24 h (AC50 (uM) modified / 1000) was greater than 90 µM. Same read-out and setting: under `O=C(N[C@H]1N=C(c2ccccc2F)c2cccc3c2N(CC3)C1=O)c1cc2ccccc2[nH]1` [Pranazepide] stands greater than 50 µM. Under “AC50 (uM) modified / 1000, Tox21_110001=Tox21_301964, viability, 1 nM T3 present, 24 h”, `CON(C)C(=O)Nc1ccc(Br)cc1` [Metobromuron] gave a CC50 at 24 h greater than 90 µM.

Under “AC50 (uM) modified / 1000”, `CN1CCN(C2=Nc3cc(F)ccc3Cc3ccccc32)CC1` [Fluperlapine] had a CC50 at 24 h of 11.9 µM. Same read-out and setting: with `CC(C)Nc1ccc(NC(C)C)c2c1C(=O)c1ccccc1C2=O` [1,4-Bis(N-isopropylamino)anthraquinone] the figure was greater than 50 µM.

For `ClC1=C(Cl)[C@]2(Cl)[C@H]3[C@H]([C@@H]4C=C[C@H]3C4)[C@@]1(Cl)C2(Cl)Cl` [Aldrin], the 50% cytotoxic concentration (CC50) at 24 h reads like this: (AC50 (uM) modified / 1000, Tox21_110001=Tox21_202072, viability, 1 nM T3 present, 24 h) 51.6 µM; (AC50 (uM) modified / 1000, Tox21_110001=Tox21_300172, viability, 1 nM T3 present, 24 h) 46.1 µM. In turn, `O=C(O)C(F)(F)C(F)(F)C(F)(F)C(F)(F)C(F)(F)C(F)(F)F` [Perfluoroheptanoic acid] gave a CC50 at 24 h (AC50 (uM) modified / 1000, Tox21_110001=Tox21_300616, viability, 1 nM T3 present, 24 h) greater than 90 µM. As for `CC(C)=CCC/C(C)=C\CO` [(2Z)-3,7-Dimethylocta-2,6-dien-1-ol], the CC50 at 24 h (AC50 (uM) modified / 1000) was greater than 90 µM. `CNCCC(Oc1ccccc1OC)c1ccccc1` (stereo not shown) [Nisoxetine] displayed a CC50 at 24 h (AC50 (uM) modified / 1000) of 38.3 µM.

For the setting “AC50 (uM) modified / 1000”, `Cn1c(=O)c2c(ncn2CCO)n(C)c1=O` [Etofylline] returned a CC50 at 24 h greater than 50 µM.

The compound `C=CCC1([C@H](C)CCC)C(=O)NC(=O)NC1=O` [R-(+)-Secobarbital] had a CC50 at 24 h (AC50 (uM) modified / 1000) greater than 90 µM. For the setting “AC50 (uM) modified / 1000”, `Nc1cccc([N+](=O)[O-])c1` [3-Nitroaniline] gave a CC50 at 24 h greater than 90 µM. For `CC=C(C)C(C)=O` [3-Methyl-3-penten-2-one], the CC50 at 24 h (AC50 (uM) modified / 1000) was greater than 90 µM. The same measure, in the same setting: under `CC(C)c1cccc(C(C)C)c1` [1,3-Diisopropylbenzene] stands greater than 90 µM; under `O=C1OC(=O)c2c(Br)c(Br)c(Br)c(Br)c21` [Tetrabromophthalic anhydride], greater than 90 µM; under `COc1ccc(C(=O)Nc2ccccc2)cc1[N+](=O)[O-]` [4-Methoxy-3-nitro-N-phenylbenzamide], greater than 90 µM. On the same count and under the same terms, with `CCCCCCCCCC(C)=O` [2-Undecanone] the figure was greater than 90 µM; with `CC1CC(=O)CC(C)(C)C1` (stereo not shown) [3,3,5-Trimethylcyclohexanone], greater than 90 µM; with `CCC(C)C1N=C(C)C(C)S1` (stereo not shown) [2-(2-Butyl)-4,5-dimethyl-3-thiazoline], greater than 90 µM. Same read-out and setting: with `Clc1ccc2cc3ccccc3cc2c1` [2-Chloroanthracene] the figure was greater than 90 µM; with `COC(=O)CCc1ccc(OCC(O)CNC(C)C)cc1` (stereo not shown) [Esmolol hydrochloride], greater than 50 µM; with `O=C1c2ccccc2C(=O)C1c1ccc(Cl)cc1` [Clorindione], greater than 50 µM. For the setting “AC50 (uM) modified / 1000, Tox21_110001=Tox21_200670, viability, 1 nM T3 present, 24 h”, `O=[N+]([O-])c1ccc(Cl)c(Cl)c1Cl` [2,3,4-Trichloronitrobenzene] registered a CC50 at 24 h greater than 90 µM. Consider `CC(C)CCCCCOC(=O)CCCOc1ccc(Cl)cc1Cl` [2,4-DB-isooctyl ester], for which the CC50 at 24 h (AC50 (uM) modified / 1000) was greater than 90 µM. Turning to `CNC(C)Cc1ccccc1OC` (stereo not shown) [Methoxyphenamine], the CC50 at 24 h (AC50 (uM) modified / 1000, Tox21_110001=Tox21_113045, viability, 1 nM T3 present, 24 h) is greater than 50 µM. In the case of `Nc1c2c(nc3ccccc13)CCCC2O` (stereo not shown) [Hydroxytacrine maleate], where the note is “AC50 (uM) modified / 1000”, the CC50 at 24 h was greater than 50 µM. Turning to `C=C1CC[C@H]2C[C@@H]1C2(C)C` [beta-Pinene], the CC50 at 24 h (AC50 (uM) modified / 1000) was greater than 90 µM. Turning to `CNNC` [1,2-Dimethylhydrazine dihydrochloride], the CC50 at 24 h (AC50 (uM) modified / 1000, Tox21_110001=Tox21_201194, viability, 1 nM T3 present, 24 h) is greater than 90 µM. Under “AC50 (uM) modified / 1000”, `COCCOC(=O)c1ccccc1C(=O)OCCOC` [Di(2-methoxyethyl) phthalate] had a CC50 at 24 h greater than 90 µM. In the case of `O=[N+]([O-])c1c(Cl)c(Cl)c(Cl)c(Cl)c1Cl` [Pentachloronitrobenzene], the CC50 at 24 h (AC50 (uM) modified / 1000) was greater than 90 µM. Still for that read-out and setting: with `COC(=O)COc1ccc(Cl)cc1Cl` [2,4-D-methyl] the figure was greater than 90 µM; with `OC[C@H](Cc1cccc(O)c1)[C@H](CO)Cc1cccc(O)c1` [(-)-Enterodiol], greater than 90 µM. `CCN(CC)N=O` [N-Nitrosodiethylamine] registered a 50% cytotoxic concentration (CC50) at 24 h (AC50 (uM) modified / 1000, Tox21_110001=Tox21_201255, viability, 1 nM T3 present, 24 h) greater than 90 µM. Turning to `O=C(N[C@@H](Cc1ccccc1)[C@@H](O)C(=O)N1C[C@@H](O)[C@@H](O)C1)c1cc2cc(Cl)ccc2[nH]1` [Ingliforib], half-maximal cytotoxicity (AC50 (uM) modified / 1000) (CC50 at 24 h) was put at 78.2 µM. Turning to `Nc1nnc(S)[nH]1` [5-Amino-1,2-dihydro-3H-1,2,4-triazole-3-thione], the CC50 at 24 h (AC50 (uM) modified / 1000) is greater than 90 µM.

As to `CCCCCCCCCCCCCBr` [1-Bromotridecane], the CC50 at 24 h (AC50 (uM) modified / 1000) was greater than 90 µM. The same measure, in the same setting: under `N[C@@H]1CCCC[C@H]1N` [1,2-Cyclohexanediamine] stands greater than 90 µM. For `CC[N+]1(C)CCCC(OC(=O)C(O)(c2ccccc2)c2ccccc2)C1` (stereo not shown) [Pipenzolate bromide], the half-maximal cytotoxic concentration (CC50) at 24 h (AC50 (uM) modified / 1000) is greater than 50 µM. For the setting “AC50 (uM) modified / 1000”, `O=C(Nc1ccccc1)Nc1ccccc1` [Diphenylurea] showed a CC50 at 24 h greater than 90 µM.

On to `Nc1ccc(C(=O)OCCCOC(=O)c2ccc(N)cc2)cc1` [Propane-1,3-diyl bis(4-aminobenzoate)], for which, for the setting “AC50 (uM) modified / 1000”, the CC50 at 24 h was greater than 90 µM.

As for `CC(CCCCN)C(C)(C)N` (stereo not shown) [Trimethylhexane-1,6-diamine], the CC50 at 24 h (AC50 (uM) modified / 1000) was greater than 200 µM. For the compound `Clc1cccc(N2CCNCC2)c1` [1-(3-Chlorophenyl)piperazine], under “AC50 (uM) modified / 1000, Tox21_110001=Tox21_110110, viability, 1 nM T3 present, 24 h”, the CC50 at 24 h was greater than 50 µM. In turn, `CC(C)=CCOc1c2occc2cc2ccc(=O)oc12` [Imperatorin] registered a CC50 at 24 h (AC50 (uM) modified / 1000) greater than 50 µM.

As a reminder, the CC50 is the concentration that lowers cell viability or growth by half.
